The text below walks through data of patent US20180021361A1, “COMBINATION DRUG TREATMENT FOR HEPATITIS C INFECTION” (JANSSEN PHARMACEUTICALS, INC., priority 2016, published 2018).

Data set [1] can be described thus: Phase-1 drug-drug interaction study, plasma PK in healthy volunteers. As for the experimental part:
A drug-drug interaction study (DDI) study is a study designed to investigate whether a drug alters the pharmacokinetics of another drug or drugs or their metabolites.
Compound (III) Subjects received 800 mg of Compound (III) once daily from Days 1-3, Days 11-13, and Days 21-23. PK blood samples for determination of Compound (III) and metabolite concentrations were collected in reference to the Day 3, Day 13, and Day 23 doses.
Simeprevir—Subjects received 150 mg of Simeprevir (SMV) once daily from Days 4-23. PK blood samples for determination of SMV concentrations were collected in reference to the Day 10, Day 13, Day 20, and Day 23 doses.
Odalasvir—Subjects received a loading dose of 150 mg on Day 14, and 50 mg of Odalasvir once daily from Days 15-23. PK blood samples for determination of Odalasvir concentrations were collected in reference to the Day 20 and Day 23 doses.
Compound (III)—Subjects received 800 mg of Compound (III) once daily from Days 1-3, Days 11-13 and Days 21-23. PK blood samples for determination of Compound (III) and metabolite concentrations were collected in reference to the Day 3, Day 13, and Day 23 doses.
Simeprevir—Subjects receive 150 mg of SMV once daily from Days 4-23. PK blood samples for determination of SMV concentrations were collected in reference to the Day 20 and Day 23 doses.
Odalasvir—Subjects receive a loading dose of 150 mg on Day 4, and 50 mg of Odalasvir once daily from Days 5-23. PK blood samples for determination of Odalasvir concentrations were collected in reference to the Day 10, Day 13, Day 20, and Day 23 doses.
A primary objective was to evaluate the effect of multiple oral doses of Odalasvir (alone), Simeprevir (alone), and Odalasvir and Simeprevir on the multiple oral dose PK of Compound (III) (and certain metabolites thereof, such as the major metabolites in systemic circulation) in healthy volunteers. Other objectives were to evaluate the safety and tolerability of multiple oral doses of Compound (III) when administered alone and in combination with single and multiple oral doses of Odalasvir and/or Simeprevir in healthy volunteers; to determine the potential effect of Compound of Compound (III) and/or Odalasvir on the steady-state PK of Simeprevir in healthy volunteers; to determine the potential effect of Compound of Compound (III) and/or Simeprevir on the steady state PK of Odalasvir in healthy volunteers.
Various other PK parameters were estimated including: […], t1/2, Tmax, Tlast, CL/F, Vz/F, and λz.
Odalasvir: 150 mg loading dose; 50 mg for the remainder of the study period.

Data set [2] in a line: Phase 2a open-label combination study, pharmacokinetics. Type of data set: in vivo, human. As for the experimental part: A randomized, Phase 2a, open-label study was carried out to evaluate the safety, pharmacokinetics and efficacy of the combination of Compound (III), Odalasvir and Simeprevir in Genotype 1 treatment-naïve subjects with chronic hepatitis C. Other treatment-naïve subjects included Genotype 2, 3, 4, 5 and 6. The aim of the study was to determine the efficacy, pharmacokinetics (PK), and safety of Compound (III)+Odalasvir±SMV in HCV-infected subjects. […] Efficacy, PK and safety evaluations were conducted during and through 24 weeks post dosing. Up to 15 cohorts were enrolled; data was generated from cohorts that have completed dosing.

For data set [3] the following is noted: prior drug-drug interaction study, Digoxin a pgp-substrate; cited from earlier work.
The conditions of data set [4]: prior drug-drug interaction study, Rosuvastatin substrate of OATPs & BCRP; cited from earlier work.
Another data set has as its target P-gp (Homo sapiens, UniProt P08183). Particulars: efflux transporter; cited from earlier work.
A further data set deals with T1, OATP1B1 (Homo sapiens, UniProt Q9Y6L6).
T1 sequence (Q9Y6L6 1-691): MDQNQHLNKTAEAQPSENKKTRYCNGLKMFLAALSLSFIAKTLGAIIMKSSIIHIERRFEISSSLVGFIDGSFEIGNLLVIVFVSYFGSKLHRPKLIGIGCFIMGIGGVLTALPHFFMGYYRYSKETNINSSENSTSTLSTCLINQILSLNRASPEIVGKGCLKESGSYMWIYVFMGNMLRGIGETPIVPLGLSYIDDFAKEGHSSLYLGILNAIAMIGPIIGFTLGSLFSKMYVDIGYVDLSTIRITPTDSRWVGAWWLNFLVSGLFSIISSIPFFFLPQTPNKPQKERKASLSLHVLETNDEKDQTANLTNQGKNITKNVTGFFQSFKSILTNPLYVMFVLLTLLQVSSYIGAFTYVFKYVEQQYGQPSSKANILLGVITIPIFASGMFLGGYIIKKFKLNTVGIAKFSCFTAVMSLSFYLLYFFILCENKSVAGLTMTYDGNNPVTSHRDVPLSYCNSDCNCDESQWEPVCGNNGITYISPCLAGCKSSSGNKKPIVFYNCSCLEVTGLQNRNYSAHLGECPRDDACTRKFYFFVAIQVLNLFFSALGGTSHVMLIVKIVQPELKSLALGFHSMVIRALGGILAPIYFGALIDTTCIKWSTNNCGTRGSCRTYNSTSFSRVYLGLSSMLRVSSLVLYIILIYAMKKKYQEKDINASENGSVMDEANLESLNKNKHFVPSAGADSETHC
Particulars: uptake transporter; cited from earlier work.

The next data set deals with MRP2 (Homo sapiens, UniProt Q92887). To be noted: efflux transporter; cited from earlier work.
A further data set has as its target BSEP (Homo sapiens, UniProt O95342). Particulars: efflux transporter; cited from earlier work.

Entries after “also recorded” stand apart in the source; their conditions may differ.

Chain of BSEP (O95342 whole entry): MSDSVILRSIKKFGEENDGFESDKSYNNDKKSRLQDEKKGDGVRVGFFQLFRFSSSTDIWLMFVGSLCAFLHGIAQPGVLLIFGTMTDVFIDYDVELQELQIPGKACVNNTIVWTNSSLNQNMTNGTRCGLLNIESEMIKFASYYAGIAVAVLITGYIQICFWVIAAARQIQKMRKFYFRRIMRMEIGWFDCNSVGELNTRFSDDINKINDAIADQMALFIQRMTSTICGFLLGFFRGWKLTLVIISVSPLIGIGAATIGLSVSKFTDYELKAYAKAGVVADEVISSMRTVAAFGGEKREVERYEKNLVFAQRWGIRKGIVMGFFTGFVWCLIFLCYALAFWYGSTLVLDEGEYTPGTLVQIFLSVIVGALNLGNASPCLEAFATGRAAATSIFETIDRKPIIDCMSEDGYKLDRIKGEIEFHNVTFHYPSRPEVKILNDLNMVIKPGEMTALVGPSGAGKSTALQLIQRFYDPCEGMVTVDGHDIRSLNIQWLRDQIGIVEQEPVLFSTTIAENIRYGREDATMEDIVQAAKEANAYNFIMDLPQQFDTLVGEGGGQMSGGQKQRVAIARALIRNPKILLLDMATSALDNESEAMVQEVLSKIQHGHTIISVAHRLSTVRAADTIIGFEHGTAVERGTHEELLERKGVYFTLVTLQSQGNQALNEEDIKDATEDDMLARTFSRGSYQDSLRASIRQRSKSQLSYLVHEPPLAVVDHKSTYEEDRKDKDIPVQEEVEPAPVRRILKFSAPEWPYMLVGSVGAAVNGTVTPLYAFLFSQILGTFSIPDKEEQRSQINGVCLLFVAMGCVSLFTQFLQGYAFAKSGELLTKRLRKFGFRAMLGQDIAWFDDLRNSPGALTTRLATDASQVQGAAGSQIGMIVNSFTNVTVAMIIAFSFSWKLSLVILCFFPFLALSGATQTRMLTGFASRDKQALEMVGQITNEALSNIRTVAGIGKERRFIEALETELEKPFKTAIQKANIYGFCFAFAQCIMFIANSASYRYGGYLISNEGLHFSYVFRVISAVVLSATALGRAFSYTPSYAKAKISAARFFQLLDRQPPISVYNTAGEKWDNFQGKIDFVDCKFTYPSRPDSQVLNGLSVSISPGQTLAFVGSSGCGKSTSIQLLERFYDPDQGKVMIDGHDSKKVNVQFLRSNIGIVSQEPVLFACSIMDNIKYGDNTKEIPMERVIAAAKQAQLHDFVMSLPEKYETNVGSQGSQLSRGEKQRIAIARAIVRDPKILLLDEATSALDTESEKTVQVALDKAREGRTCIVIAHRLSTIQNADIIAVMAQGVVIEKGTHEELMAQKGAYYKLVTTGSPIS
Chain of MRP2 (Q92887 whole entry): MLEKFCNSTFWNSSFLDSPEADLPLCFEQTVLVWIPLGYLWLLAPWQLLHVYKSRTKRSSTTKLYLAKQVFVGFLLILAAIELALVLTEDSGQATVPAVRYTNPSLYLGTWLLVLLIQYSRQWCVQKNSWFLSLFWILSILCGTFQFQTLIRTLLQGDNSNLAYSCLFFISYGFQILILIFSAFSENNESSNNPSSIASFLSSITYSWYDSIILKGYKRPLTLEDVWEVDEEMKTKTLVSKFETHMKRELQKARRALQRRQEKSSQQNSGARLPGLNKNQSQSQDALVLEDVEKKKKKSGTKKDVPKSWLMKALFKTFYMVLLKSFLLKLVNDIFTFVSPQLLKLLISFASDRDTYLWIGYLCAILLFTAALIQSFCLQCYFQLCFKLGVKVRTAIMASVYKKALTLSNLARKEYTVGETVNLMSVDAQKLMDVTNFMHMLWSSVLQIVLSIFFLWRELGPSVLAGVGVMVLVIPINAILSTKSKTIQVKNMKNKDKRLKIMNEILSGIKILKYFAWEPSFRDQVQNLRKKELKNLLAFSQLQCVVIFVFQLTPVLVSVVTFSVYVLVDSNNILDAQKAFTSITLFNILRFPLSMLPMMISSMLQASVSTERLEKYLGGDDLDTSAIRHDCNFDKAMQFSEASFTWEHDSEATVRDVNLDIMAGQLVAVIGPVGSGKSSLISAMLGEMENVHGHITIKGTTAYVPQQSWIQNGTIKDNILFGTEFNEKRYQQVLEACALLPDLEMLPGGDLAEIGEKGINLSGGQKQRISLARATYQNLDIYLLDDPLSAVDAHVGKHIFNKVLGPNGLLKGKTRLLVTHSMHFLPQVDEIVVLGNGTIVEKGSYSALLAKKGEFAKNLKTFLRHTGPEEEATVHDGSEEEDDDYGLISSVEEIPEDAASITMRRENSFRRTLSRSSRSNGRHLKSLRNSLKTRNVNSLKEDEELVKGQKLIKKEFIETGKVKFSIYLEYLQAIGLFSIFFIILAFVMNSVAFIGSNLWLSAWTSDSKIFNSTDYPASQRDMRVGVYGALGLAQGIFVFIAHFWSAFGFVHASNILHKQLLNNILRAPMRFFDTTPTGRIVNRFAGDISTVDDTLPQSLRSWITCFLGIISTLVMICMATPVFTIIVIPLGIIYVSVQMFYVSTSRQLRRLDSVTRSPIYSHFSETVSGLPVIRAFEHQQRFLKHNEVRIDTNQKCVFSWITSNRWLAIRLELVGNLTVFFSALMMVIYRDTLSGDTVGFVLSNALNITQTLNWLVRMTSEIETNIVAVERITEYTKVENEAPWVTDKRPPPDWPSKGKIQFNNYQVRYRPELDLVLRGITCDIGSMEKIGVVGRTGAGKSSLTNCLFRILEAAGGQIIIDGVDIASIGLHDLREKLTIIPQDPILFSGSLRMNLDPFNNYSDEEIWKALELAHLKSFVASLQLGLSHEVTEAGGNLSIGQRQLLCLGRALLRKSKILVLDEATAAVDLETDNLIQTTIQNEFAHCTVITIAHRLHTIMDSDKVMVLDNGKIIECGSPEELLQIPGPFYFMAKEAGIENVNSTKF
Chain of P-gp (P08183 whole entry): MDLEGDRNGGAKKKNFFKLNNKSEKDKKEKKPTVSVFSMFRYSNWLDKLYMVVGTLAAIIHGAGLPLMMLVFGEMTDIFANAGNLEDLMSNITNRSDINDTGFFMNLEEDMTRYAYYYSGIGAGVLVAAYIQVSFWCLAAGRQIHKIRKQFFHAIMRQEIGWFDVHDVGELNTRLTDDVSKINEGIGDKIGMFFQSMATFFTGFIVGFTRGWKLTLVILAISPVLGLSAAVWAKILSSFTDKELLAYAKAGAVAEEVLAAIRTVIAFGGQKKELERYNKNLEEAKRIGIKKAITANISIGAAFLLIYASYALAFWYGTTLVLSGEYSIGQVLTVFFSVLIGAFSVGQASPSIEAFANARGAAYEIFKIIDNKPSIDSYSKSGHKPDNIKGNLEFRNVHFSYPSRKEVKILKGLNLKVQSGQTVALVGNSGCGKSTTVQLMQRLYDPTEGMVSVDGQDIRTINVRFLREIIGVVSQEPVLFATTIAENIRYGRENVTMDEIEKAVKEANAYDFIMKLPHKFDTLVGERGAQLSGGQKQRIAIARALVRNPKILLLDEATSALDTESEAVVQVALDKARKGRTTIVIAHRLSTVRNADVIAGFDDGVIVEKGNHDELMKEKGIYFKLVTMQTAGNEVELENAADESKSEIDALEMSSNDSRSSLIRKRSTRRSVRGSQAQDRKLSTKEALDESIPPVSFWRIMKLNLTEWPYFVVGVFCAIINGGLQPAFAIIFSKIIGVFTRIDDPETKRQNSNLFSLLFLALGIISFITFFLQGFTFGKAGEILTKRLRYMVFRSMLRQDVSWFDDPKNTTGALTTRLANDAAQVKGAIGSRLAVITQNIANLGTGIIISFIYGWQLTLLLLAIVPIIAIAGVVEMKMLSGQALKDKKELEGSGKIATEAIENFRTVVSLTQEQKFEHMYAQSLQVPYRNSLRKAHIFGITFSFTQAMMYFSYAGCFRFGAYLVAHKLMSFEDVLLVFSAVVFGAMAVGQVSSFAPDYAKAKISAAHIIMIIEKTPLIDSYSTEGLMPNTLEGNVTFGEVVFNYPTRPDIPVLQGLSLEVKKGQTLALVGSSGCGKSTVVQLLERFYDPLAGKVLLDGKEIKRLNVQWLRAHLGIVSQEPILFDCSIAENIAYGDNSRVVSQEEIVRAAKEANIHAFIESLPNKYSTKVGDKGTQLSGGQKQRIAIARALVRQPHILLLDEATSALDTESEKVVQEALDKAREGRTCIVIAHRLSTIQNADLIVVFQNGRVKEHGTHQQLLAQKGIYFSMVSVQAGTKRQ

As to `C[C@]1(O)[C@H](n2ccc(=O)[nH]c2=O)O[C@](F)(CO)[C@H]1O` [Compound A-1], in data set [1] (DDI study results), the “exposure increase caused by Odalasvir” value is 1.5 × and the “exposure increase caused by SMV” value is listed as “no apparent effect”. In data set [2] (HCV GT 1 patients), the “change of exposure on increasing Compound (III) dose from 400 to 800 mg” value was “less than proportionally”.

Regarding `C[C@H](NP(=O)(O)OC[C@@]1(F)O[C@@H](n2ccc(=O)[nH]c2=O)[C@](C)(O)[C@@H]1O)C(=O)O` [Compound A-3], in data set [1] (DDI study results), the “exposure increase caused by Odalasvir” value is on record as 2.6 × and the “exposure increase caused by SMV” value is on record as 1.6 ×.

In the case of `COc1ccc2c(O[C@@H]3C[C@H]4C(=O)N[C@]5(C(=O)NS(=O)(=O)C6CC6)C[C@H]5/C=C\CCCCN(C)C(=O)[C@@H]4C3)cc(-c3nc(C(C)C)cs3)nc2c1C` [SMV, Simeprevir, reference compound], the “increase in exposure of Digoxin” value in data set [3] is given as 35%. In data set [4], the “increase in Rosuvastatin exposure” value was 3 fold. Further, the “in vitro inhibition of P-gp” value on P-gp is reported as “strong/moderate”. In data set [1] (DDI study results), the “exposure increase caused by Odalasvir” value is recorded as 1.6 × and the “exposure increase, effect of the three Compounds” value turned out to be 1.6 ×. Besides, in data set [1] (human in vivo study), the “increase of exposure with the combination of the three drugs” value came to 1.6 times. The “effect of Compound (III) on exposure / bioavailability” value in data set [1] (human subjects) is recorded as “no apparent effect; also recorded: does not alter”. In addition, the “in vitro inhibition of OATP1B1” value at OATP1B1 is reported as “strong in vitro inhibition”. Besides, in data set [2] (Compound (III) 400 mg, ODV 50 mg QD, SMV 100 mg QD), the “observed exposure in Cohort 1 / group (i) versus anticipated” value was “higher than anticipated”. Also, in data set [2] (in vivo), the “decrease of exposure on reducing Simeprevir dosing from 100 mg to 75 mg QD” value is given as “less than proportionally”. For the same compound, the “in vitro inhibition of MRP2” value at MRP2 was “strong/moderate”. Besides, the “in vitro inhibition of BSEP” value on BSEP was “strong/moderate”.
